Results taken from ChEMBL document CHEMBL1201862, “PubChem BioAssay data set” (2004).
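Grown in 96-well plates, cells were treated for 48 hours with each compound at five concentrations. Insufficient inhibition: endpoint recorded as highest concentration tested. At the GI50, growth is halved.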 The source made the active and inactive calls. No stated cut-off is given here; in the data, active = GI50 up to about 1.1 µM and inactive = higher.

Tests used:
Test in all cases: inhibition of tumour cell growth, NCI panel, 48 h
[1] = tested on: 786-0
[2] = tested on: A498
[3] = tested on: A549
[4] = tested on: ACHN
[5] = tested on: CAKI-1
[6] = tested on: CCRF-CEM
[7] = tested on: COLO 205
[8] = tested on: DLD-1
[9] = tested on: DMS-114
[10] = tested on: DMS-273
[11] = tested on: EKVX
[12] = tested on: HCC 2998
[13] = tested on: HCT-116
[14] = tested on: HCT-15
[15] = tested on: HL-60
[16] = tested on: HOP-18
[17] = tested on: HOP-62
[18] = tested on: HOP-92
[19] = tested on: HT-29
[20] = tested on: IGROV-1
[21] = tested on: K562
[22] = tested on: KM-20L2
[23] = tested on: KM12
[24] = tested on: LOX IMVI
[25] = tested on: LXFL 529
[26] = tested on: M14
[27] = tested on: M19-MEL
[28] = tested on: MOLT-4
[29] = tested on: Malme-3M
[30] = tested on: NCI-H226
[31] = tested on: NCI-H23
[32] = tested on: NCI-H460
[33] = tested on: NCI-H522
[34] = tested on: OVCAR-3
[35] = tested on: OVCAR-4
[36] = tested on: OVCAR-5
[37] = tested on: OVCAR-8
[38] = tested on: RPMI-8226
[39] = tested on: RXF 393
[40] = tested on: RXF 631
[41] = tested on: SF-268
[42] = tested on: SF-295
[43] = tested on: SF-539
[44] = tested on: SK-MEL-28
[45] = tested on: SK-MEL-2
[46] = tested on: SK-MEL-5
[47] = tested on: SK-OV-3
[48] = tested on: SN12C
[49] = tested on: SNB-19
[50] = tested on: SNB-75
[51] = tested on: SNB-78
[52] = tested on: SR
[53] = tested on: SW-620
[54] = tested on: TK-10
[55] = tested on: U-251
[56] = tested on: UACC-257
[57] = tested on: UACC-62
[58] = tested on: UO-31
[59] = tested on: XF498

COC(=O)C(C(=O)C(=O)Nc1ccc(Br)cc1)c1nc2ccc(Cl)cc2nc1O (stereo unspecified)
GI50 [1]: > 100 µM (inactive) | GI50 [2]: > 100 µM (inactive) | GI50 [3]: > 100 µM (inactive) | GI50 [4]: > 91.8 µM (inactive) | GI50 [5]: > 100 µM (inactive) | GI50 [6]: > 90.2 µM (inactive) | GI50 [7]: > 45.2 µM (inactive) | GI50 [8]: > 100 µM (inactive) | GI50 [9]: > 80 µM (inactive) | GI50 [10]: > 70.6 µM (inactive) | GI50 [11]: > 100 µM (inactive) | GI50 [12]: > 100 µM (inactive) | GI50 [13]: > 100 µM (inactive) | GI50 [14]: > 41.2 µM | GI50 [15]: > 83.2 µM (inactive) | GI50 [16]: > 100 µM (inactive) | GI50 [17]: > 100 µM (inactive) | GI50 [18]: > 100 µM (inactive) | GI50 [19]: > 48 µM (inactive) | GI50 [20]: > 100 µM (inactive) | GI50 [21]: > 67.8 µM (inactive) | GI50 [22]: > 100 µM (inactive) | GI50 [23]: > 66.5 µM (inactive) | GI50 [24]: > 76.7 µM (inactive) | GI50 [25]: > 100 µM (inactive) | GI50 [26]: > 100 µM (inactive) | GI50 [27]: > 100 µM (inactive) | GI50 [28]: 80.7 µM (inactive) | GI50 [29]: > 100 µM (inactive) | GI50 [30]: 61 µM (inactive) | GI50 [31]: > 100 µM (inactive) | GI50 [32]: > 57.1 µM (inactive) | GI50 [33]: > 100 µM (inactive) | GI50 [34]: > 100 µM (inactive) | GI50 [35]: > 34.5 µM (inactive) | GI50 [36]: > 100 µM (inactive) | GI50 [37]: > 100 µM (inactive) | GI50 [38]: > 100 µM (inactive) | GI50 [39]: > 100 µM (inactive) | GI50 [40]: > 100 µM (inactive) | GI50 [41]: > 100 µM (inactive) | GI50 [42]: > 100 µM (inactive) | GI50 [43]: > 100 µM (inactive) | GI50 [44]: > 100 µM (inactive) | GI50 [45]: > 100 µM (inactive) | GI50 [46]: > 100 µM (inactive) | GI50 [47]: > 100 µM (inactive) | GI50 [48]: > 100 µM (inactive) | GI50 [49]: > 100 µM (inactive) | GI50 [50]: 81.7 µM (inactive) | GI50 [51]: > 100 µM (inactive) | GI50 [52]: > 100 µM (inactive) | GI50 [53]: > 20 µM (inactive) | GI50 [54]: > 100 µM (inactive) | GI50 [55]: > 100 µM (inactive) | GI50 [56]: > 100 µM (inactive) | GI50 [57]: > 100 µM (inactive) | GI50 [58]: > 82.4 µM (inactive) | GI50 [59]: > 100 µM (inactive)

C=CCc1cc2cccc(OC)c2oc1=O
GI50 [1]: > 100 µM (inactive) | GI50 [2]: > 100 µM (inactive) | GI50 [3]: > 100 µM (inactive) | GI50 [4]: > 100 µM (inactive) | GI50 [5]: > 100 µM (inactive) | GI50 [6]: 45.2 µM (inactive) | GI50 [7]: > 100 µM (inactive) | GI50 [8]: > 100 µM (inactive) | GI50 [9]: 80.5 µM (inactive) | GI50 [10]: > 100 µM (inactive) | GI50 [11]: 44.3 µM (inactive) | GI50 [12]: > 100 µM (inactive) | GI50 [13]: > 100 µM (inactive) | GI50 [14]: > 100 µM | GI50 [15]: 34.8 µM (inactive) | GI50 [16]: 73.6 µM (inactive) | GI50 [17]: > 100 µM (inactive) | GI50 [18]: 92.3 µM (inactive) | GI50 [19]: > 100 µM (inactive) | GI50 [20]: > 100 µM (inactive) | GI50 [21]: 75.5 µM (inactive) | GI50 [22]: > 100 µM (inactive) | GI50 [23]: > 100 µM (inactive) | GI50 [24]: 93.3 µM (inactive) | GI50 [25]: 57 µM (inactive) | GI50 [26]: > 100 µM (inactive) | GI50 [27]: > 100 µM (inactive) | GI50 [28]: 63.4 µM (inactive) | GI50 [29]: > 100 µM (inactive) | GI50 [30]: > 100 µM (inactive) | GI50 [31]: > 100 µM (inactive) | GI50 [32]: > 100 µM (inactive) | GI50 [33]: 6.9 µM (inactive) | GI50 [34]: > 100 µM (inactive) | GI50 [35]: > 100 µM (inactive) | GI50 [36]: 66.1 µM (inactive) | GI50 [37]: > 100 µM (inactive) | GI50 [38]: > 100 µM (inactive) | GI50 [40]: > 100 µM (inactive) | GI50 [41]: > 100 µM (inactive) | GI50 [42]: > 100 µM (inactive) | GI50 [43]: > 100 µM (inactive) | GI50 [44]: > 100 µM (inactive) | GI50 [45]: > 100 µM (inactive) | GI50 [46]: 87.3 µM (inactive) | GI50 [48]: > 100 µM (inactive) | GI50 [49]: > 100 µM (inactive) | GI50 [50]: 87.5 µM (inactive) | GI50 [51]: > 100 µM (inactive) | GI50 [52]: 44.3 µM (inactive) | GI50 [53]: > 100 µM (inactive) | GI50 [54]: > 100 µM (inactive) | GI50 [55]: > 100 µM (inactive) | GI50 [56]: > 100 µM (inactive) | GI50 [57]: > 100 µM (inactive) | GI50 [58]: 1.19 µM (inactive) | GI50 [59]: 7.24 µM (inactive)
